According to ChEMBL document CHEMBL5137124, “Mutasynthesis Generates Antibacterial Benzothiophenic-Containing Nosiheptide Analogues” (2022):
Converted amounts (≈) assume the structure as drawn.

Columns and labels:
Assay type in all cases: functional
[1] = tested on: Staphylococcus aureus; experiment: Antibacterial activity against gram positive methicillin-sensitive Staphylococcus aureus ATCC 6538 assessed as inhibition of bacterial growth incubated for 20 hrs by microtiter plate method
[2] = tested on: Staphylococcus aureus; experiment: Antibacterial activity against gram positive methicillin-sensitive Staphylococcus aureus ATCC 25923 assessed as inhibition of bacterial growth incubated for 20 hrs by microtiter plate method
[3] = tested on: Staphylococcus aureus; experiment: Antibacterial activity against gram positive methicillin-resistant Staphylococcus aureus ATCC 43300 assessed as inhibition of bacterial growth incubated for 20 hrs by microtiter plate method
[4] = tested on: Staphylococcus aureus; experiment: Antibacterial activity against gram positive methicillin-resistant Staphylococcus aureus HCCB 20251 assessed as inhibition of bacterial growth incubated for 20 hrs by microtiter plate method
[5] = tested on: Staphylococcus aureus; experiment: Antibacterial activity against gram positive methicillin-resistant Staphylococcus aureus HCCB 20252 assessed as inhibition of bacterial growth incubated for 20 hrs by microtiter plate method
[6] = tested on: Enterococcus faecium; experiment: Antibacterial activity against gram positive vancomycin-sensitive Enterococcus faecium CICC 20419 assessed as inhibition of bacterial growth incubated for 20 hrs by microtiter plate method
[7] = tested on: Enterococcus faecium; experiment: Antibacterial activity against gram positive vancomycin-sensitive Enterococcus faecium CICC 6049 assessed as inhibition of bacterial growth incubated for 20 hrs by microtiter plate method
[8] = tested on: Enterococcus faecium; experiment: Antibacterial activity against gram positive vancomycin-resistant Enterococcus faecium ATCC 51559 assessed as inhibition of bacterial growth incubated for 20 hrs by microtiter plate method

Row | SMILES | MIC [1] [µg/mL] | MIC [2] [µg/mL] | MIC [3] [µg/mL] | MIC [4] [µg/mL] | MIC [5] [µg/mL] | MIC [6] [µg/mL] | MIC [7] [µg/mL] | MIC [8] [µg/mL]
1 | C=C(NC(=O)c1csc(-c2nc3c(cc2O)-c2nc(cs2)C(=O)N[C@@H]([C@@H](C)O)C(=O)N/C(=C\C)c2nc(cs2)C(=O)N[C@H]2C[C@H](O)C(=O)OCc4cccc5[nH]c(c(C)c45)C(=O)SC[C@H](NC(=O)c4csc2n4)c2nc-3cs2)n1)C(N)=O | 0.002 (≈ 0.00164 µM) | 0.008 (≈ 0.00654 µM) | 0.008 (≈ 0.00654 µM) | 0.008 (≈ 0.00654 µM) | 0.008 (≈ 0.00654 µM) | 0.032 (≈ 0.0262 µM) | 0.016 (≈ 0.0131 µM) | ≤ 0.008
2 | C=C(NC(=O)C(=C)NC(=O)c1csc(-c2ccc3c(n2)-c2csc(n2)[C@@H]2CSC(=O)c4sc5cccc(c5c4C)COC(=O)CC[C@H](NC(=O)c4csc(n4)/C(=C/C)NC(=O)[C@H]([C@@H](C)O)NC(=O)c4csc-3n4)c3nc(cs3)C(=O)N2)n1)C(=O)O | 0.016 (≈ 0.0125 µM) | 0.032 (≈ 0.025 µM) | 0.032 (≈ 0.025 µM) | 0.064 (≈ 0.0501 µM) | 0.032 (≈ 0.025 µM) | 1.02 (≈ 0.802 µM) | 1.02 (≈ 0.802 µM) | 0.512 (≈ 0.401 µM)
3 | C=C(NC(=O)c1csc(-c2nc3c(cc2O)-c2nc(cs2)C(=O)N[C@@H]([C@@H](C)O)C(=O)N/C(=C\C)c2nc(cs2)C(=O)N[C@H]2CCC(=O)OCc4cccc5sc(c(C)c45)C(=O)SC[C@H](NC(=O)c4csc2n4)c2nc-3cs2)n1)C(N)=O | 0.004 (≈ 0.00327 µM) | 0.032 (≈ 0.0262 µM) | 0.008 (≈ 0.00654 µM) | 0.016 (≈ 0.0131 µM) | 0.008 (≈ 0.00654 µM) | 0.064 (≈ 0.0523 µM) | 0.064 (≈ 0.0523 µM) | 0.032 (≈ 0.0262 µM)
4 | C=C(NC(=O)C(=C)NC(=O)c1csc(-c2ccc3c(n2)-c2csc(n2)[C@@H]2CSC(=O)c4[nH]c5cccc(c5c4C)COC(=O)CC[C@H](NC(=O)c4csc(n4)/C(=C/C)NC(=O)[C@H]([C@@H](C)O)NC(=O)c4csc-3n4)c3nc(cs3)C(=O)N2)n1)C(=O)O | 0.016 (≈ 0.0127 µM) | 0.016 (≈ 0.0127 µM) | 0.032 (≈ 0.0254 µM) | 0.064 (≈ 0.0508 µM) | 0.064 (≈ 0.0508 µM) | 1.02 (≈ 0.812 µM) | > 1.02 | 0.512 (≈ 0.406 µM)
5 | C=C(NC(=O)c1csc(-c2nc3c(cc2O)-c2nc(cs2)C(=O)N[C@@H]([C@@H](C)O)C(=O)N/C(=C\C)c2nc(cs2)C(=O)N[C@H]2C[C@H](O)C(=O)OCc4cccc5sc(c(C)c45)C(=O)SC[C@H](NC(=O)c4csc2n4)c2nc-3cs2)n1)C(N)=O | 0.004 (≈ 0.00323 µM) | 0.008 (≈ 0.00645 µM) | 0.008 (≈ 0.00645 µM) | 0.016 (≈ 0.0129 µM) | 0.008 (≈ 0.00645 µM) | 0.064 (≈ 0.0516 µM) | 0.064 (≈ 0.0516 µM) | 0.016 (≈ 0.0129 µM)
6 | CN[C@H](CC(C)C)C(=O)N[C@H]1C(=O)N[C@@H](CC(N)=O)C(=O)N[C@H]2C(=O)N[C@H]3C(=O)N[C@H](C(=O)N[C@H](C(=O)O)c4cc(O)cc(O)c4-c4cc3ccc4O)[C@H](O)c3ccc(c(Cl)c3)Oc3cc2cc(c3O[C@@H]2O[C@H](CO)[C@@H](O)[C@H](O)[C@H]2O[C@H]2C[C@](C)(N)[C@H](O)[C@H](C)O2)Oc2ccc(cc2Cl)[C@H]1O [VANCOMYCIN] |  |  |  |  |  |  |  | > 128
